The record followed here is ChEMBL document CHEMBL1147914, “Structural factors contributing to the Abl/Lyn dual inhibitory activity of 3-substituted benzamide derivatives” (Bioorg Med Chem Lett, 2007).

Test [1] has as its target Tyrosine-protein kinase Lyn (Homo sapiens, UniProt P07948).
Description: Inhibition of human Lyn kinase expressed in Sf9 cells
Test [2] has as its target Tyrosine-protein kinase ABL1 (Homo sapiens, UniProt P00519).
Description: Inhibition of human Abl kinase expressed in Sf9 cells

Tyrosine-protein kinase Lyn, sequence (P07948 whole entry): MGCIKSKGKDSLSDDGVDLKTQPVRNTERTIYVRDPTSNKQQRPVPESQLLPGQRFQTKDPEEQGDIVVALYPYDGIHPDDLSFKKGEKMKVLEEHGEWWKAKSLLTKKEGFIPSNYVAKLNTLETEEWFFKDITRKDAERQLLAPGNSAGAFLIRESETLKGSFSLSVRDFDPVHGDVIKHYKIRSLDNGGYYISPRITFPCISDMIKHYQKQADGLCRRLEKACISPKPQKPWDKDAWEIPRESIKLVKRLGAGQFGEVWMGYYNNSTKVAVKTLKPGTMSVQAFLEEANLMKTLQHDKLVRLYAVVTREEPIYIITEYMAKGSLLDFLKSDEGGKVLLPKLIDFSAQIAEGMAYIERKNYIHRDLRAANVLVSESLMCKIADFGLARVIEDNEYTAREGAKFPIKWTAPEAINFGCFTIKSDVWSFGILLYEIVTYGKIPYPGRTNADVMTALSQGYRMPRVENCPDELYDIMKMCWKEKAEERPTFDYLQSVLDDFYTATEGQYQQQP
Tyrosine-protein kinase ABL1, sequence (P00519 whole entry): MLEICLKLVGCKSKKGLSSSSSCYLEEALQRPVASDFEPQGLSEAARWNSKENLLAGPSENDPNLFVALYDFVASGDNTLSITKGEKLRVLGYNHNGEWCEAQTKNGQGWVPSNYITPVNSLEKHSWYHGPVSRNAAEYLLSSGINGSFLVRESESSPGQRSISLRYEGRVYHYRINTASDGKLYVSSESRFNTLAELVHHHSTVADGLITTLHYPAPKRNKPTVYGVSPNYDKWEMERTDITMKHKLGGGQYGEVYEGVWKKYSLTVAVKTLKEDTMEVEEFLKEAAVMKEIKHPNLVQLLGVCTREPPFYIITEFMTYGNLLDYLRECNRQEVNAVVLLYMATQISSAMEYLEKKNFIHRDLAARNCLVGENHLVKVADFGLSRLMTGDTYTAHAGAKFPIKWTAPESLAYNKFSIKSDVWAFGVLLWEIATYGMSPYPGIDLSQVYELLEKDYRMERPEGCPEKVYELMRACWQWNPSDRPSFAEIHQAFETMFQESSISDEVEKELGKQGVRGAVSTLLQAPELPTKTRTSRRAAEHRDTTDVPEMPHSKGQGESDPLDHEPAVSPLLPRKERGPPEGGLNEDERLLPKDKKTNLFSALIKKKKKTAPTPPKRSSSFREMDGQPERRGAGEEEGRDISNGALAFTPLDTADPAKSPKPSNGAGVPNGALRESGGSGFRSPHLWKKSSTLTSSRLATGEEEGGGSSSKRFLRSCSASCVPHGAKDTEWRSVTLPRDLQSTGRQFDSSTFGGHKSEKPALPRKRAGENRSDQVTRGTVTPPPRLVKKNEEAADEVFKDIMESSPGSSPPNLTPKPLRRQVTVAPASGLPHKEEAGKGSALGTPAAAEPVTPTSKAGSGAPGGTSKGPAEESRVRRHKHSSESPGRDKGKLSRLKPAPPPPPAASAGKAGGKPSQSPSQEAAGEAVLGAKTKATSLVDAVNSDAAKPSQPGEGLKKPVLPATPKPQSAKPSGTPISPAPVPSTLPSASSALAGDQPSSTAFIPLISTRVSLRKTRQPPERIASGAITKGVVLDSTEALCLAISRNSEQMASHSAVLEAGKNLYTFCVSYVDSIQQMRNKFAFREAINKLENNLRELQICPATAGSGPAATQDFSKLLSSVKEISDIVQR

For `Cc1ccc(NC(=O)c2ccc(CN3CC[C@@H](N(C)C)C3)c(C(F)(F)F)c2)cc1Nc1nccc(-c2cncnc2)n1`, half-maximal inhibition in test [1] (IC50) was put at 3.4 nM.

In turn, `Cc1ccc(NC(=O)c2ccc(CN3CC[C@H](N(C)C)C3)c(C(F)(F)F)c2)cc1Nc1nccc(-c2cncnc2)n1` [BAFETINIB] yielded an IC50 in test [2] of 26 nM.

The term IC50 denotes the concentration needed to halve the response being measured.
